Measurements published in patent US20200123208A1, “PEPTIDES AND NEMATICIDAL COMPOSITIONS” (priority 2017, published 2020).

Tests used:
Format in all cases: in vivo
[1] = system: Globodera pallida infective stage juveniles (J2s); assay: Chemosensory (chemotaxis) assay towards root exudate, G. pallida J2s; conditions: 100 μM uNLP, 24 h, mean+/-SEM
Procedure: (§1) Predicted uNLPs from both M. incognita and G. pallida were synthesised by EZBiolab and dissolved into pH adjusted ddH2O to make a 5 mM stock which was aliquoted and stored at −20° C. J2s of both M. incognita and G. pallida were incubated for 24 hours in 200 μl of each peptide in a 24 well plate (SPL Lifesciences, South Korea) at a defined concentration.
(§2) A 60 mm Petri dish was divided into two segments, a positive and a negative side, with a 0.5 cm ‘dead zone’ either side of the centre point. The petri dish was filled with 15 ml of 0.25% w/v agar which was allowed to solidify. 3 ml of 0.25% w/v agar slurry in spring water (pH 7, agitated with a magnetic stirrer for several hours to give a smooth consistency) was added to the petri dish and spread evenly over the surface. Root diffusate (attractant) and water only (control) 0.25% agar plugs were embedded in the agar slurry, either side of the assay arena. Root diffusate was collected from 10 tomato plants, aged 3-6 weeks in 1 litre pots, by pouring 500 ml of ddH2O through the soil three times. Diffusate from each plant was combined, filter sterilised and stored at 4° C. for a maximum of 1 month. Root diffusate agar plugs were made by melting 1.25% agar in ddH2O, cooling to 50° C. before mixing with 4 parts of root diffusate. The agar was then allowed to solidify at room temperature. 100 uNLP pre-treated M. incognita or G. pallida J2s were added by pipette to the centre of the plate. J2s which moved out of the ‘dead zone’ after 3 hours were counted and their location (+/−) scored. The distribution of J2s were used to create a chemotaxis index for each plate, which formed one replicate, a total of 10 replicates where completed for each uNLP treatment.

[2] = system: Meloidogyne incognita J2s; assay: Serotonin-induced stylet thrusting assay, M. incognita J2s; conditions: 100 μM uNLP, 24 h, 5 mM serotonin
Procedure: as §1
(§3) Stylet thrusting assays where performed by incubating 100 M. incognita or G. pallida J2s for 15 minute in 5 mM or 2 mM serotonin (Sigma Aldrich, USA), respectively. J2s were placed on a glass slide and stylet thrusts were counted for randomly selected J2s, for 1 minute each. Counting took place for a maximum of 15 minutes. Longer incubations yielded inconsistent results. At least 30 J2s were counted for each neuropeptide treatment.

[3] = system: Meloidogyne incognita infective stage juveniles (J2s); assay: Chemosensory (chemotaxis) assay towards root exudate, M. incognita J2s; conditions: M. incognita J2s, 100 μM uNLP, 24 h; mean+/-SEM
Procedure: as §1, §2

[4] = system: Meloidogyne incognita J2s; assay: Tomato invasion assay, M. incognita J2s; conditions: 100 μM uNLP, 24 h, tomato seedlings, normalised to negative control
Procedure: as §1
(§4) Tomato seeds were sterilised with 2.5% NaOCl for 15 minutes, washed 5 times in ddH2O and germinated on 0.5% Murashige and Skoog plates at 23° C. […] Invasion assays were performed by mixing 500 pre-treated M. incognita or G. pallida J2s with agar slurry and a single tomato seedling (2 days post germination) in a 6 well plate. Assays were left at 23° C. for 24 hours in the case of M. incognita and at 18° C. for 24 hours in the case of G. pallida under a 16 hour light and 8 hour darkness cycle. Seedlings were stained using acid fuschin [69] and the number of nematodes within the roots counted.

Globodera pallida J2s [5] = assay: Tomato invasion assay, G. pallida J2s; conditions: G. pallida J2s, 100 μM uNLP, 24 h; tomato seedlings
Procedure: as §1, §4

Globodera pallida J2s [6] = assay: Serotonin-induced stylet thrusting assay, G. pallida J2s; conditions: 100 μM uNLP, 24 h, 2 mM serotonin
Procedure: as §1, §3

## SFDSLTGPGFTGLDT [Gp-NLP-15a, predicted unamidated NLP of Globodera pallida]
[1]
  chemotaxis index (Cl) towards root exudate: −0.1451 +/−0.221

## SFGDYPFGSRTFAFA [Mi-NLP-18c, predicted unamidated NLP of Meloidogyne incognita]
[2]
  rate of serotonergic-induced stylet thrusting compared with controls: 175.5%+/−20.72

## ALDILESDDFGGF [Gp-NLP-14a, predicted unamidated NLP of Globodera pallida]
[1]
  chemotaxis index (Cl) towards root exudate: −0.3765+/−0.1039

## ALDLMEGDGFGGGFD [Mi-NLP-14b, predicted unamidated NLP of Meloidogyne incognita]
[3]
  chemotaxis index (Cl) towards root exudate: −0.1155+/−0.1472

## AAENFDENNDIN [Mi-NLP-18d, predicted unamidated NLP of Meloidogyne incognita]
[2]
  rate of serotonergic-induced stylet thrusting compared with controls: 147.7%+/−16.05
[4]
  host invasion compared to controls: 34.21%+/−12

## ALDMMEGDDFIGL [Mi-NLP-14c, predicted unamidated NLP of Meloidogyne incognita]
[2]
  rate of serotonergic-induced stylet thrusting compared with controls: 134.7%+/−19.51
[4]
  host invasion compared to controls: 20.96%+/−11.12

## GMRNFAFA [Mi-NLP-18b, predicted unamidated NLP of Meloidogyne incognita]
[2]
  rate of serotonergic-induced stylet thrusting compared with controls: 146.6%+/−7.609
[4]
  host invasion compared to controls: 47.81%+/−6.008

## GGARAFAKLEE [Mi-NLP-9c, predicted unamidated NLP of Meloidogyne incognita]
[2]
  rate of serotonergic-induced stylet thrusting compared with controls: 143.2%+/−9.878

## GGARTFLVGE [Mi-NLP-9b, predicted unamidated NLP of Meloidogyne incognita]
[3]
  chemotaxis index (Cl) towards root exudate: −0.07417+/−0.154

## SSQFGGENSFARFAFA [Mi-NLP-18e, predicted unamidated NLP of Meloidogyne incognita]
[4]
  host invasion compared to controls: 46.49%+/−7.391

## SFDSFVGKGFTGMD [Mi-NLP-15c, predicted unamidated NLP of Meloidogyne incognita]
[3]
  chemotaxis index (Cl) towards root exudate: −0.359+/−0.277

## SAFDSFVGRGFTGMD [Mi-NLP-15e, predicted unamidated NLP of Meloidogyne incognita]
[4]
  host invasion compared to controls: 38.71%+/−5.963
[3]
  chemotaxis index (Cl) towards root exudate: −0.01767+/−0.09428

## AGGRLFRMVDLPDGDDFVPEG [Gp-NLP-21e, predicted unamidated NLP of Globodera pallida]
[1]
  chemotaxis index (Cl) towards root exudate: −0.3804+/−0.2762

## FNDDELSSLPFNFEYFPSLDTH [Mi-NLP-8b, predicted unamidated NLP of Meloidogyne incognita]
[4]
  host invasion compared to controls: 61.38%+/−11.56

## AFDLFTGPGFTGMD [Gp-NLP-15h, predicted unamidated NLP of Globodera pallida]
[1]
  chemotaxis index (Cl) towards root exudate: −0.06784+/−0.1415

## AFDRLDVSPFDFDAMT [Mi-NLP-8a, predicted unamidated NLP of Meloidogyne incognita]
[2]
  rate of serotonergic-induced stylet thrusting compared with controls: 126.1%+/−9.278
[3]
  chemotaxis index (Cl) towards root exudate: 0.018+/−0.3438

## AGARAFQRPDFDDASYEL [Mi-NLP-9a, predicted unamidated NLP of Meloidogyne incognita]
[4]
  host invasion compared to controls: 45.59%+/−22.97

## GGTRAFNFFVSDALPSSYE [Gp-NLP-21c, predicted unamidated NLP of Globodera pallida]
Globodera pallida J2s [5]
  host invasion relative to controls: 14.07%+/−4.655

## ALDMLEGDDFIGMQ [Mi-NLP-14a, predicted unamidated NLP of Meloidogyne incognita]
[2]
  rate of serotonergic-induced stylet thrusting compared with controls: 61.6%+/−7.86
[4]
  host invasion compared to controls: 44.61%+/−12.25

## AFDSFTGPGFTGMD [Gp-NLP-15g, predicted unamidated NLP of Globodera pallida]
[1]
  chemotaxis index (Cl) towards root exudate: −0.2208 +/−0.1568

## AFDRLDNSFMLL [Mi-NLP-8d, predicted unamidated NLP of Meloidogyne incognita]
[4]
  host invasion compared to controls: 29.31%+/−12.57

## AGGRYFMRHFDDSPFAGWMA [Gp-NLP-21g, predicted unamidated NLP of Globodera pallida]
[1]
  chemotaxis index (Cl) towards root exudate: −0.01357+/−0.1854
Globodera pallida J2s [5]
  host invasion relative to controls: 214.8%+/−30.31

## SFDSFTGSGFTGLD [Gp-NLP-15c, predicted unamidated NLP of Globodera pallida]
[1]
  chemotaxis index (Cl) towards root exudate: −0.227+/−0.0776
Globodera pallida J2s [6]
  serotonergic-induced stylet thrusting relative to control groups: 56.07%+/−9.441

## GGARAFNGAEETLLNVANLA [Gp-NLP-21i, predicted unamidated NLP of Globodera pallida]
[1]
  chemotaxis index (Cl) towards root exudate: −0.1733 +/−0.02667
Globodera pallida J2s [6]
  serotonergic-induced stylet thrusting relative to control groups: 117.7%+/−4.497

## AFDSFGTPGFTGFD [Mi-NLP-15a, predicted unamidated NLP of Meloidogyne incognita]
[3]
  chemotaxis index (Cl) towards root exudate: −0.01067+/−0.06497

## GGARAFNFFAPPDE [Gp-NLP-21a, predicted unamidated NLP of Globodera pallida]
Globodera pallida J2s [5]
  host invasion relative to controls: 178.9%+/−48.52

## GGARAFNFFAPDE [Gp-NLP-21b, predicted unamidated NLP of Globodera pallida]
[1]
  chemotaxis index (Cl) towards root exudate: −0.117 +/−0.1936
Globodera pallida J2s [5]
  host invasion relative to controls: 6.897%+/−3.855

## FAPRQFAFA [Mi-NLP-18a, predicted unamidated NLP of Meloidogyne incognita]
[4]
  host invasion compared to controls: 25.88%+/−8.695
[3]
  chemotaxis index (Cl) towards root exudate: −0.1353+/−0.1129

## ALDILDGDDFTGFS [Gp-NLP-14e, predicted unamidated NLP of Globodera pallida]
[1]
  chemotaxis index (Cl) towards root exudate: −0.0641+/−0.2329

## GGARPFYGFFGGGEGTW [Mi-NLP-9e, predicted unamidated NLP of Meloidogyne incognita]
[4]
  host invasion compared to controls: 48.68%+/−10.87

## GGARPFYGGGYMDGTW [Gp-NLP-21f, predicted unamidated NLP of Globodera pallida]
[1]
  chemotaxis index (Cl) towards root exudate: 0.1456+/−0.1232

## AFDSFAGNGFTGFD [Mi-NLP-15f, predicted unamidated NLP of Meloidogyne incognita]
[2]
  rate of serotonergic-induced stylet thrusting compared with controls: 75.18%+/−9.199
[3]
  chemotaxis index (Cl) towards root exudate: −0.05+/−0.3547

## SSLASGRIGFRPA [Mi-NLP-2, predicted unamidated NLP of Meloidogyne incognita]
[2]
  rate of serotonergic-induced stylet thrusting compared with controls: 164.4%+/−20.3

## GGARAFFGDADGPFNSASYWAP [Gp-NLP-21h, predicted unamidated NLP of Globodera pallida]
[1]
  chemotaxis index (Cl) towards root exudate: −0.01564+/−0.08072
Globodera pallida J2s [6]
  serotonergic-induced stylet thrusting relative to control groups: 116.8%+/−4.876

## SGIQTFRDDYDEKQAGEL [Gp-NLP-21d, predicted unamidated NLP of Globodera pallida]
Globodera pallida J2s [5]
  host invasion relative to controls: 2.01%+/−1.545
